Holding throughout (type): cell-based
One assay deals with Proteus mirabilis C977. Briefly: MIC by serial dilution in Iso-Sensitest Agar, P. mirabilis C977. The following applies: 24 h, overnight at 37° C. The method, then: (§1) Minimum Inhibitory Concentration (MIC) values of compounds of the invention against P. mirabilis C977, S. marcescens US 32, and P. aeruginosa K79961 were determined by serial dilution in Iso-Sensitest Agar (from Oxiod Ltd., Basinstoke, England). The plates were inoculated with […] colony forming units and incubated overnight at 37° C. The MIC values recorded in Table 1 were the lowest concentration of antibiotic to inhibit growth. Comparative data for sodium 7β[2-(3,4-diacetoxyphenyl)-2-[(4-ethyl-2,3-dioxopiperazin-1yl)carbonylamino]acetomido]-7α-formamido-3-[(2-methyl-1,3,4-thiadiazol-5yl)thiomethyl]ceph-3em-4-carboxylate (Compound A), disclosed in European Patent Application No. 82303821.1 (Publication No. 0 071 395) are also given.

For assay [1], the system named is Serratia marcescens US 32. Briefly: MIC by serial dilution in Iso-Sensitest Agar, S. marcescens US 32. The following applies: US32, 24 h, overnight at 37° C. The method, then: as §1
For assay [2], the system named is Pseudomonas aeruginosa K79961. Briefly: MIC by serial dilution in Iso-Sensitest Agar, P. aeruginosa K79961. The following applies: 24 h, overnight at 37° C. The method, then:
as §1

In the case of `CCN1CCN(C(=O)N[C@@H](C(=O)N[C@]2(NC=O)C(=O)N3C(C(=O)O)=C(CSc4nncs4)CS[C@@H]32)c2ccc(O)c(O)c2)C(=O)C1=O` [Example 2, Sodium 7β-[D-2-(3,4-Dihydroxyphenyl)-2-[(4-ethyl-2,3-dioxopiperazin-1-yl)carbonylamino]acetamido]-7α-formamido-3-[(1,3,4-thiadiazol-2-yl)thiomethyl]ceph-3-em-4-carboxylate], the MIC (usually the lowest concentration found to suppress growth) came to 1 µg/mL against Proteus mirabilis C977, 0.12 µg/mL in assay [1] and 0.5 µg/mL in assay [2].

On to `CCN1CCN(C(=O)N[C@@H](C(=O)N[C@]2(NC=O)C(=O)N3C(C(=O)O)=C(CSc4nncs4)CS[C@@H]32)c2ccc(OC(C)=O)c(OC(C)=O)c2)C(=O)C1=O` [Example 1, Sodium 7β-[D-2-(3,4-Diacetoxyphenyl)-2-[(4-ethyl-2,3-dioxopiperazin-1-yl)carbonylamino]acetamido]-7α-formamido-3-[(1,3,4-thiadiazol-2-yl)thiomethyl]ceph-3-em-4-carboxylate], for which the values for the MIC (in the assay on Proteus mirabilis C977; in assay [1]; in assay [2]) were 1 µg/mL, 0.25 µg/mL and 0.25 µg/mL, respectively.

Turning to `CCN1CCN(C(=O)NC(C(=O)N[C@]2(NC=O)C(=O)N3C(C(=O)O)=C(CSc4nnc(C)s4)CS[C@@H]32)c2ccc(OC(C)=O)c(OC(C)=O)c2)C(=O)C1=O` (stereo partly drawn) [Compound A, sodium 7β[2-(3,4-diacetoxyphenyl)-2-[(4-ethyl-2,3-dioxopiperazin-1yl)carbonylamino]acetomido]-7α-formamido-3-[(2-methyl-1,3,4-thiadiazol-5yl)thiomethyl]ceph-3em-4-carboxylate, reference compound], the results for the MIC (against Proteus mirabilis C977; in assay [1]; in assay [2]) were 4 µg/mL, 1 µg/mL and 2 µg/mL, respectively.

For the origin of these results see patent US4835150A, “Cephem compounds” (Beecham Group p.l.c., priority 1985, dated 1989).
